Active and inactive are the calls of the source. The rule behind the calls is not given here.
Tested on: CCRIS mutagenicity, Ames/micronucleus/aberration tests
Assay: CCRIS mutagenicity studies
[1] = Test System: AMES SALMONELLA TYPHIMURIUM, Strain/Indicator: TA98, Metabolic Activation: NONE, Method: STANDARD PLATE
[2] = Test System: AMES SALMONELLA TYPHIMURIUM, Strain/Indicator: TA98, Metabolic Activation: RAT, LIVER, S-9, AROCLOR 1254, Method: STANDARD PLATE
[3] = Test System: AMES SALMONELLA TYPHIMURIUM, Strain/Indicator: TA100, Metabolic Activation: NONE, Method: STANDARD PLATE
[4] = Test System: AMES SALMONELLA TYPHIMURIUM, Strain/Indicator: TA100, Metabolic Activation: RAT, LIVER, S-9, AROCLOR 1254, Method: STANDARD PLATE
[5] = Test System: AMES SALMONELLA TYPHIMURIUM, Strain/Indicator: TA100(NR), Metabolic Activation: NONE, Method: STANDARD PLATE
[6] = Test System: AMES SALMONELLA TYPHIMURIUM, Strain/Indicator: TA100(NR), Metabolic Activation: RAT, LIVER, S-9, AROCLOR 1254, Method: STANDARD PLATE

## Cc1c(C(=O)O)c(O)cc2c1C(=O)c1c(O)c([C@@H]3O[C@H](CO)[C@@H](O)[C@H](O)[C@H]3O)c(O)c(O)c1C2=O
Test System: AMES SALMONELLA TYPHIMURIUM, Strain/Indicator: TA98, Metabolic Activation: HAMSTER, LIVER, S-9, AROCLOR 1254, Method: STANDARD PLATE
  mutagenic call: inactive; negative
Test System: AMES SALMONELLA TYPHIMURIUM, Strain/Indicator: TA98, Metabolic Activation: NONE
  mutagenic call: inactive; negative
[1]
  mutagenic call: inactive; negative
Test System: AMES SALMONELLA TYPHIMURIUM, Strain/Indicator: TA98, Metabolic Activation: RAT, LIVER, S-9, AROCLOR 1254 (10 OR 30%)
  mutagenic call: inactive; negative
[2]
  mutagenic call: inactive; negative
Test System: AMES SALMONELLA TYPHIMURIUM, Strain/Indicator: TA100, Metabolic Activation: HAMSTER, LIVER, S-9, AROCLOR 1254, Method: STANDARD PLATE
  mutagenic call: inactive; negative
Test System: AMES SALMONELLA TYPHIMURIUM, Strain/Indicator: TA100, Metabolic Activation: NONE
  mutagenic call: inactive; negative
[3]
  mutagenic call: inactive; negative
Test System: AMES SALMONELLA TYPHIMURIUM, Strain/Indicator: TA100, Metabolic Activation: RAT, LIVER, S-9, AROCLOR 1254 (10%)
  mutagenic call: inactive; negative
Test System: AMES SALMONELLA TYPHIMURIUM, Strain/Indicator: TA100, Metabolic Activation: RAT, LIVER, S-9, AROCLOR 1254 (10 OR 30%)
  mutagenic call: inactive; negative
[4]
  mutagenic call: inactive; negative
Test System: AMES SALMONELLA TYPHIMURIUM, Strain/Indicator: TA1535, Metabolic Activation: HAMSTER, LIVER, S-9, AROCLOR 1254, Method: STANDARD PLATE
  mutagenic call: inactive; negative
Test System: AMES SALMONELLA TYPHIMURIUM, Strain/Indicator: TA1535, Metabolic Activation: NONE
  mutagenic call: inactive; negative
Test System: AMES SALMONELLA TYPHIMURIUM, Strain/Indicator: TA1535, Metabolic Activation: NONE, Method: STANDARD PLATE
  mutagenic call: inactive; negative
Test System: AMES SALMONELLA TYPHIMURIUM, Strain/Indicator: TA1535, Metabolic Activation: RAT, LIVER, S-9, AROCLOR 1254 (10 OR 30%)
  mutagenic call: inactive; negative
Test System: AMES SALMONELLA TYPHIMURIUM, Strain/Indicator: TA1535, Metabolic Activation: RAT, LIVER, S-9, AROCLOR 1254, Method: STANDARD PLATE
  mutagenic call: inactive; negative
Test System: AMES SALMONELLA TYPHIMURIUM, Strain/Indicator: TA1537, Metabolic Activation: HAMSTER, LIVER, S-9, AROCLOR 1254, Method: STANDARD PLATE
  mutagenic call: inactive; negative
Test System: AMES SALMONELLA TYPHIMURIUM, Strain/Indicator: TA1537, Metabolic Activation: NONE
  mutagenic call: inactive; negative
Test System: AMES SALMONELLA TYPHIMURIUM, Strain/Indicator: TA1537, Metabolic Activation: NONE, Method: STANDARD PLATE
  mutagenic call: inactive; negative
Test System: AMES SALMONELLA TYPHIMURIUM, Strain/Indicator: TA1537, Metabolic Activation: RAT, LIVER, S-9, AROCLOR 1254 (10 OR 30%)
  mutagenic call: inactive; negative
Test System: AMES SALMONELLA TYPHIMURIUM, Strain/Indicator: TA1537, Metabolic Activation: RAT, LIVER, S-9, AROCLOR 1254, Method: STANDARD PLATE
  mutagenic call: inactive; negative
Test System: AMES SALMONELLA TYPHIMURIUM, Strain/Indicator: TA1538, Metabolic Activation: HAMSTER, LIVER, S-9, AROCLOR 1254, Method: STANDARD PLATE
  mutagenic call: inactive; negative
Test System: AMES SALMONELLA TYPHIMURIUM, Strain/Indicator: TA1538, Metabolic Activation: NONE, Method: STANDARD PLATE
  mutagenic call: inactive; negative
Test System: AMES SALMONELLA TYPHIMURIUM, Strain/Indicator: TA1538, Metabolic Activation: RAT, LIVER, S-9, AROCLOR 1254, Method: STANDARD PLATE
  mutagenic call: inactive; negative
Test System: MOUSE LYMPHOMA, Strain/Indicator: L5178Y (TK+/TK-), Metabolic Activation: NONE, Method: SUSPENSION/PLATE
  mutagenic call: active; positive. reevaluation of results: positive
Test System: MOUSE LYMPHOMA, Strain/Indicator: L5178Y (TK+/TK-), Metabolic Activation: RAT, LIVER, S-9, AROCLOR 1254, Method: SUSPENSION/PLATE
  mutagenic call: active; positive. reevaluation of results: positive
Test System: UDS RODENT HEPATOCYTES, Strain/Indicator: THY INCORP, Metabolic Activation: NONE, Method: AUTORADIOGRAPHY
  mutagenic call: inactive; negative

## ONc1ncnc2nc[nH]c12
Test System: AMES SALMONELLA TYPHIMURIUM, Strain/Indicator: HISG46, Metabolic Activation: NONE, Method: STANDARD PLATE
  mutagenic call: active; positive
Test System: AMES SALMONELLA TYPHIMURIUM, Strain/Indicator: TA97, Metabolic Activation: NONE, Method: STANDARD PLATE
  mutagenic call: active; positive
Test System: AMES SALMONELLA TYPHIMURIUM, Strain/Indicator: TA97, Metabolic Activation: RAT, LIVER, S-9, AROCLOR 1254, Method: STANDARD PLATE
  mutagenic call: inactive; negative
[1]
  mutagenic call: inactive; negative
Test System: AMES SALMONELLA TYPHIMURIUM, Strain/Indicator: TA100(TN5-1,8-DNP1011), Metabolic Activation: NONE, Method: STANDARD PLATE
  mutagenic call: active; positive
Test System: AMES SALMONELLA TYPHIMURIUM, Strain/Indicator: TA100(TN5-1,8-DNP1012), Metabolic Activation: NONE, Method: STANDARD PLATE
  mutagenic call: active; positive
[4]
  mutagenic call: inactive; negative
Test System: AMES SALMONELLA TYPHIMURIUM, Strain/Indicator: TA1950, Metabolic Activation: NONE, Method: STANDARD PLATE
  mutagenic call: active; positive
Test System: E.COLI, Strain/Indicator: CM871, Metabolic Activation: NONE, Method: STANDARD PLATE
  mutagenic call: active; positive
Test System: E.COLI, Strain/Indicator: WP2, Metabolic Activation: NONE, Method: STANDARD PLATE
  mutagenic call: active; positive

## COc1ccc(N(CCCl)CCCl)c2cc([N+](=O)[O-])oc12
[5]
  mutagenic call: inactive; negative
[6]
  mutagenic call: active; positive
[3]
  mutagenic call: active; positive
[4]
  mutagenic call: active; positive

## NC(=O)CCC(=O)Nc1ccc(Cl)c(Cl)c1
[1]
  mutagenic call: inactive; negative
[2]
  mutagenic call: inactive; negative
[3]
  mutagenic call: inactive; negative
[4]
  mutagenic call: inactive; negative

## CCOc1ccc(N=O)cc1
[1]
  mutagenic call: active; positive
[2]
  mutagenic call: active; positive
Test System: AMES SALMONELLA TYPHIMURIUM, Strain/Indicator: TA100(NR), Metabolic Activation: NONE, Method: PREINCUBATION
  mutagenic call: active; positive
[5]
  mutagenic call: active; positive
Test System: AMES SALMONELLA TYPHIMURIUM, Strain/Indicator: TA100(NR), Metabolic Activation: RAT, LIVER, S-9, AROCLOR 1254, Method: PREINCUBATION
  mutagenic call: active; positive
[6]
  mutagenic call: active; positive
Test System: AMES SALMONELLA TYPHIMURIUM, Strain/Indicator: TA100, Metabolic Activation: HAMSTER, LIVER, S-9, KANECHLOR 400, Method: PREINCUBATION
  mutagenic call: active; positive
Test System: AMES SALMONELLA TYPHIMURIUM, Strain/Indicator: TA100, Metabolic Activation: NONE, Method: PREINCUBATION
  mutagenic call: active; positive
[3]
  mutagenic call: active; positive
Test System: AMES SALMONELLA TYPHIMURIUM, Strain/Indicator: TA100, Metabolic Activation: RAT, LIVER, S-9, AROCLOR 1254, Method: PREINCUBATION
  mutagenic call: active; positive
[4]
  mutagenic call: active; positive
Test System: AMES SALMONELLA TYPHIMURIUM, Strain/Indicator: TA100TN5-1,8-DNP1011, Metabolic Activation: NONE, Method: PREINCUBATION
  mutagenic call: active; positive
Test System: AMES SALMONELLA TYPHIMURIUM, Strain/Indicator: TA100TN5-1,8-DNP1011, Metabolic Activation: NONE, Method: STANDARD PLATE
  mutagenic call: active; positive
Test System: AMES SALMONELLA TYPHIMURIUM, Strain/Indicator: TA100TN5-1,8-DNP1011, Metabolic Activation: RAT, LIVER, S-9, AROCLOR 1254, Method: PREINCUBATION
  mutagenic call: active; positive
Test System: AMES SALMONELLA TYPHIMURIUM, Strain/Indicator: TA100TN5-1,8-DNP1011, Metabolic Activation: RAT, LIVER, S-9, AROCLOR 1254, Method: STANDARD PLATE
  mutagenic call: active; positive
Test System: AMES SALMONELLA TYPHIMURIUM, Strain/Indicator: TA100TN5-1,8-DNP1012, Metabolic Activation: NONE, Method: PREINCUBATION
  mutagenic call: active; positive
Test System: AMES SALMONELLA TYPHIMURIUM, Strain/Indicator: TA100TN5-1,8-DNP1012, Metabolic Activation: NONE, Method: STANDARD PLATE
  mutagenic call: active; positive
Test System: AMES SALMONELLA TYPHIMURIUM, Strain/Indicator: TA100TN5-1,8-DNP1012, Metabolic Activation: RAT, LIVER, S-9, AROCLOR 1254, Method: PREINCUBATION
  mutagenic call: active; positive
Test System: AMES SALMONELLA TYPHIMURIUM, Strain/Indicator: TA100TN5-1,8-DNP1012, Metabolic Activation: RAT, LIVER, S-9, AROCLOR 1254, Method: STANDARD PLATE
  mutagenic call: active; positive

From PubChem BioAssay AID1259407 (Chemical Carcinogenesis Research Information System (CCRIS), 2018)
